Drawing on US20180371044A1, “PEPTIDOMIMETIC MACROCYCLES” (Aileron Therapeutics, Inc., priority 2015, published 2018), this text covers EC50 for nine compounds.

Each structure is given as a SMILES string. Where a SMILES comes first, the peptide text is derived from it. [ ]: non-standard residue; d: D form. NMeY = CN[C@@H](Cc1ccc(O)cc1)C(=O)O; Cit = NC(=O)NCCC[C@H](N)C(=O)O; Nle = CCCC[C@H](N)C(=O)O; Aib = CC(C)(N)C(=O)O

The experiment deals with T1, human GHRH receptor (hGHRHR) (Homo sapiens, UniProt Q02643).
T1 construct: expressed in transfected cells; host or cells: Human 293 cells
T1 sequence (Q02643 23-423): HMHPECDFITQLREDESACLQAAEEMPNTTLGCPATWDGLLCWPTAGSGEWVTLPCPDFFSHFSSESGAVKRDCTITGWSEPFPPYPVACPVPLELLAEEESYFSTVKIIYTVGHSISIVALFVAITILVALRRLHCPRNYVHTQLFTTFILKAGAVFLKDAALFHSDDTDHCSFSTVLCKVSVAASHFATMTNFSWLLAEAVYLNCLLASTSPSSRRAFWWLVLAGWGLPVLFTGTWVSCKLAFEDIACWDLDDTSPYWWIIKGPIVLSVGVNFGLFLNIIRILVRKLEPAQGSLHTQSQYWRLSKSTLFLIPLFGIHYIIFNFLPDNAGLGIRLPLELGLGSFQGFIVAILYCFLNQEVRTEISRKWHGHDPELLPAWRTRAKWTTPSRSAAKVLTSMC
Briefly: GHRHR agonism measured by cAMP (HTRF) in human 293 cells expressing hGHRHR.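 Note: receptor expressed transiently or stably, cells stimulated in serum-free medium, EC50 from a non-linear dose-response fit, maximal response defined by reference GHRH stimulation.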 The class given is cell-based. Particulars: 30 min at RT. Background: Time-resolved FRET reads energy transfer from a long-lived donor to a nearby acceptor.

As to `CCCC[C@H](NC(=O)[C@@H](NC(=O)[C@H](CC(=O)O)NC(=O)[C@H](CCC(N)=O)NC(=O)[C@H](CC(C)C)NC(=O)[C@H](C)NC(=O)[C@H](CCCCN)NC(=O)[C@H](CCCNC(=N)N)NC(=O)[C@H](C)NC(=O)[C@H](CO)NC(=O)[C@H](CC(C)C)NC(=O)[C@H](CCC(N)=O)NC(=O)[C@H](C)NC(=O)[C@H](CC(C)C)NC(=O)[C@@H](NC(=O)[C@H](CCCCN)NC(=O)[C@H](CCCNC(=N)N)NC(=O)[C@H](Cc1ccc(O)cc1)NC(=O)[C@H](CO)NC(=O)[C@H](C)NC(=O)[C@@H](NC(=O)[C@H](Cc1ccccc1)NC(=O)[C@@H](NC(=O)[C@H](C)NC(=O)[C@H](CC(=O)O)NC(=O)[C@H](C)NC(=O)[C@H](Cc1ccc(O)cc1)NC)[C@@H](C)CC)[C@@H](C)O)C(C)C)[C@@H](C)CC)C(=O)N[C@@H](CC(=O)O)C(=O)N[C@@H](CCCNC(=N)N)C(N)=O` [SP-45] (H-[NMeY]ADAIFTASYRKVLAQLSARKALQDI[Nle]DR-NH2), the EC50 (as a rule, the concentration needed to bring the measured effect to its halfway point) was at most 1 nM.
Then `CCCC[C@H](NC(=O)[C@@H](NC(=O)[C@H](CC(=O)O)NC(=O)[C@H](CCC(N)=O)NC(=O)[C@H](CC(C)C)NC(=O)[C@H](C)NC(=O)[C@H](CCCCN)NC(=O)[C@H](CCCNC(=N)N)NC(=O)[C@H](C)NC(=O)[C@H](CO)NC(=O)[C@H](CC(C)C)NC(=O)[C@H](CCC(N)=O)NC(=O)[C@H](C)NC(=O)[C@H](CC(C)C)NC(=O)[C@@H](NC(=O)[C@H](CCCCN)NC(=O)[C@H](CCCNC(=N)N)NC(=O)[C@H](Cc1ccc(O)cc1)NC(=O)[C@H](CO)NC(=O)[C@H](C)NC(=O)[C@@H](NC(=O)[C@H](Cc1ccccc1)NC(=O)[C@@H](NC(=O)[C@H](C)NC(=O)[C@H](CC(=O)O)NC(=O)[C@@H](C)NC(=O)[C@@H](N)Cc1ccc(O)cc1)[C@@H](C)CC)[C@@H](C)O)C(C)C)[C@@H](C)CC)C(=O)N[C@@H](CO)C(=O)N[C@@H](CCCNC(=N)N)C(N)=O` [SP-46] (H-Y[dA]DAIFTASYRKVLAQLSARKALQDI[Nle]SR-NH2), with at most 1 nM; and `CCCC[C@H](NC(=O)[C@@H](NC(=O)[C@H](CC(=O)O)NC(=O)[C@H](CCC(N)=O)NC(=O)[C@H](CC(C)C)NC(=O)[C@H](C)NC(=O)[C@H](CCCCN)NC(=O)[C@H](CCCNC(=N)N)NC(=O)[C@H](C)NC(=O)[C@H](CO)NC(=O)[C@H](CC(C)C)NC(=O)[C@H](CCC(N)=O)NC(=O)[C@H](C)NC(=O)[C@H](CC(C)C)NC(=O)[C@@H](NC(=O)[C@H](CCCCN)NC(=O)[C@H](CCCNC(N)=O)NC(=O)[C@H](Cc1ccc(O)cc1)NC(=O)[C@H](CO)NC(=O)[C@H](C)NC(=O)[C@@H](NC(=O)[C@H](Cc1ccccc1)NC(=O)[C@@H](NC(=O)[C@H](C)NC(=O)[C@H](CC(=O)O)NC(=O)[C@H](C)NC(=O)[C@H](Cc1ccc(O)cc1)NC)[C@@H](C)CC)[C@@H](C)O)C(C)C)[C@@H](C)CC)C(=O)N[C@@H](CO)C(=O)N[C@@H](CCCNC(=N)N)C(N)=O` [SP-47] (H-[NMeY]ADAIFTASY[Cit]KVLAQLSARKALQDI[Nle]SR-NH2), with at most 1 nM.
`CCCC[C@H](NC(=O)[C@@H](NC(=O)[C@H](CC(=O)O)NC(=O)[C@H](CCC(N)=O)NC(=O)[C@H](CC(C)C)NC(=O)[C@H](C)NC(=O)[C@H](CCCCN)NC(=O)[C@H](CCCNC(N)=O)NC(=O)[C@H](C)NC(=O)[C@H](CO)NC(=O)[C@H](CC(C)C)NC(=O)[C@H](CCC(N)=O)NC(=O)[C@H](C)NC(=O)[C@H](CC(C)C)NC(=O)[C@@H](NC(=O)[C@H](CCCCN)NC(=O)[C@H](CCCNC(=N)N)NC(=O)[C@H](Cc1ccc(O)cc1)NC(=O)[C@H](CO)NC(=O)[C@H](C)NC(=O)[C@@H](NC(=O)[C@H](Cc1ccccc1)NC(=O)[C@@H](NC(=O)[C@H](C)NC(=O)[C@H](CC(=O)O)NC(=O)[C@H](C)NC(=O)[C@H](Cc1ccc(O)cc1)NC)[C@@H](C)CC)[C@@H](C)O)C(C)C)[C@@H](C)CC)C(=O)N[C@@H](CO)C(=O)N[C@@H](CCCNC(=N)N)C(N)=O` [SP-48] (H-[NMeY]ADAIFTASYRKVLAQLSA[Cit]KALQDI[Nle]SR-NH2) registered an EC50 of 1 to 10 nM.
Then `CCCC[C@H](NC(=O)[C@@H](NC(=O)[C@H](CC(=O)O)NC(=O)[C@H](CCC(N)=O)NC(=O)[C@H](CC(C)C)NC(=O)[C@H](C)NC(=O)[C@H](CCCCN)NC(=O)[C@H](CCCNC(=N)N)NC(=O)[C@H](C)NC(=O)[C@H](CO)NC(=O)[C@H](CC(C)C)NC(=O)[C@H](CCC(N)=O)NC(=O)[C@H](C)NC(=O)[C@H](CC(C)C)NC(=O)[C@@H](NC(=O)[C@H](CCCCN)NC(=O)[C@H](CCCNC(=N)N)NC(=O)[C@H](Cc1ccc(O)cc1)NC(=O)[C@H](CO)NC(=O)[C@H](C)NC(=O)[C@@H](NC(=O)[C@H](Cc1ccccc1)NC(=O)[C@@H](NC(=O)[C@H](C)NC(=O)[C@H](CC(=O)O)NC(=O)[C@H](C)NC(=O)[C@H](Cc1ccc(O)cc1)NC)[C@@H](C)CC)[C@@H](C)O)C(C)C)[C@@H](C)CC)C(=O)N[C@@H](CO)C(=O)N[C@@H](CCCNC(N)=O)C(N)=O` [SP-49] (H-[NMeY]ADAIFTASYRKVLAQLSARKALQDI[Nle]S[Cit]-NH2), with at most 1 nM; and `CCCC[C@H](NC(=O)[C@@H](NC(=O)[C@H](CC(=O)O)NC(=O)[C@H](CCC(N)=O)NC(=O)[C@H](CC(C)C)NC(=O)C(C)(C)NC(=O)[C@H](CCCCN)NC(=O)[C@H](CCCNC(=N)N)NC(=O)[C@H](C)NC(=O)[C@H](CO)NC(=O)[C@H](CC(C)C)NC(=O)[C@H](CCC(N)=O)NC(=O)[C@H](C)NC(=O)[C@H](CC(C)C)NC(=O)[C@@H](NC(=O)[C@H](CCCCN)NC(=O)[C@H](CCCNC(=N)N)NC(=O)[C@H](Cc1ccc(O)cc1)NC(=O)[C@H](CO)NC(=O)C(C)(C)NC(=O)[C@@H](NC(=O)[C@H](Cc1ccccc1)NC(=O)[C@@H](NC(=O)[C@H](C)NC(=O)[C@H](CC(=O)O)NC(=O)[C@H](C)NC(=O)[C@H](Cc1ccc(O)cc1)NC)[C@@H](C)CC)[C@@H](C)O)C(C)C)[C@@H](C)CC)C(=O)N[C@@H](CO)C(=O)N[C@@H](CCCNC(=N)N)C(N)=O` [SP-52] (H-[NMeY]ADAIFT[Aib]SYRKVLAQLSARK[Aib]LQDI[Nle]SR-NH2), with 1 to 10 nM; and `CCCC[C@H](NC(=O)[C@@H](NC(=O)[C@H](CC(=O)O)NC(=O)C(C)(C)NC(=O)[C@H](CC(C)C)NC(=O)[C@H](C)NC(=O)[C@H](CCCCN)NC(=O)[C@H](CCCNC(=N)N)NC(=O)[C@H](C)NC(=O)[C@H](CO)NC(=O)[C@H](CC(C)C)NC(=O)[C@H](CCC(N)=O)NC(=O)[C@H](C)NC(=O)[C@H](CC(C)C)NC(=O)[C@@H](NC(=O)[C@H](CCCCN)NC(=O)[C@H](CCCNC(=N)N)NC(=O)[C@H](Cc1ccc(O)cc1)NC(=O)[C@H](CO)NC(=O)C(C)(C)NC(=O)[C@@H](NC(=O)[C@H](Cc1ccccc1)NC(=O)[C@@H](NC(=O)[C@H](C)NC(=O)[C@H](CC(=O)O)NC(=O)[C@H](C)NC(=O)[C@H](Cc1ccc(O)cc1)NC)[C@@H](C)CC)[C@@H](C)O)C(C)C)[C@@H](C)CC)C(=O)N[C@@H](CO)C(=O)N[C@@H](CCCNC(=N)N)C(N)=O` [SP-53] (H-[NMeY]ADAIFT[Aib]SYRKVLAQLSARKAL[Aib]DI[Nle]SR-NH2), with 1 to 10 nM.
Then `CCCC[C@H](NC(=O)[C@@H](NC(=O)[C@H](CC(=O)O)NC(=O)[C@H](C)NC(=O)[C@H](CC(C)C)NC(=O)[C@H](C)NC(=O)[C@H](CCCCN)NC(=O)[C@H](CCCNC(=N)N)NC(=O)[C@H](C)NC(=O)C(C)(C)NC(=O)[C@H](CC(C)C)NC(=O)[C@H](CCC(N)=O)NC(=O)[C@H](C)NC(=O)[C@H](CC(C)C)NC(=O)[C@@H](NC(=O)[C@H](CCCCN)NC(=O)[C@H](CCCNC(=N)N)NC(=O)[C@H](Cc1ccc(O)cc1)NC(=O)[C@H](CO)NC(=O)[C@H](C)NC(=O)[C@@H](NC(=O)[C@H](Cc1ccccc1)NC(=O)[C@@H](NC(=O)[C@H](C)NC(=O)[C@H](CC(=O)O)NC(=O)[C@H](C)NC(=O)[C@H](Cc1ccc(O)cc1)NC)[C@@H](C)CC)[C@@H](C)O)C(C)C)[C@@H](C)CC)C(=O)N[C@@H](CO)C(=O)N[C@@H](CCCNC(=N)N)C(N)=O` [SP-54] (H-[NMeY]ADAIFTASYRKVLAQL[Aib]ARKALADI[Nle]SR-NH2), with 1 to 10 nM.
Then `CCCC[C@H](NC(=O)[C@@H](NC(=O)[C@H](CC(=O)O)NC(=O)C(C)(C)NC(=O)[C@H](CC(C)C)NC(=O)[C@H](C)NC(=O)[C@H](CCCCN)NC(=O)[C@H](CCCNC(=N)N)NC(=O)[C@H](C)NC(=O)C(C)(C)NC(=O)[C@H](CC(C)C)NC(=O)[C@H](CCC(N)=O)NC(=O)[C@H](C)NC(=O)[C@H](CC(C)C)NC(=O)[C@@H](NC(=O)[C@H](CCCCN)NC(=O)[C@H](CCCNC(=N)N)NC(=O)[C@H](Cc1ccc(O)cc1)NC(=O)[C@H](CO)NC(=O)C(C)(C)NC(=O)[C@@H](NC(=O)[C@H](Cc1ccccc1)NC(=O)[C@@H](NC(=O)[C@H](C)NC(=O)[C@H](CC(=O)O)NC(=O)[C@H](C)NC(=O)[C@H](Cc1ccc(O)cc1)NC)[C@@H](C)CC)[C@@H](C)O)C(C)C)[C@@H](C)CC)C(=O)N[C@@H](CO)C(=O)N[C@@H](CCCNC(=N)N)C(N)=O` [SP-55] (H-[NMeY]ADAIFT[Aib]SYRKVLAQL[Aib]ARKAL[Aib]DI[Nle]SR-NH2), with 1 to 10 nM.
